Measurements from patent US20170342312A1, “COMPOSITION AND METHOD FOR VISCOSITY CONTROL IN DELIVERY APPLICATIONS USING SUBSEA UMBILICALS” (BAKER HUGHES, A GE COMPANY, LLC, priority 2016, published 2017).
Several values for one entry are separate records, joined by “and”; a condition that tells them apart may be missing. Identical values can stand only once. Like-named read-outs stand apart in the source and are kept apart here.

Assays:
[1] = Solvent viscosity at 20° C.; format: physicochemical; settings: 20° C./1 Bar
[2] = Solvent freezing point; format: physicochemical
[3] = Solvent flash point; format: physicochemical
[4] = system: invertebrates; settings: in vivo; cited from earlier work
[5] = system: fish; settings: according to MSDS; cited from earlier work
[6] = Corrosion rate, autoclave tests; settings: corrosion values of Tables 2 and 3
Description: The corrosion rates shown in Table 2 were obtained using autoclave tests at 80° C., a partial pressure of CO2 of 0.75 bar, a brine/hydrocarbon ratio of 99 to 1 and a shear stress of 60 Pa.

[7] = according to MSDS; cited from earlier work
[8] = system: algae; settings: according to MSDS; cited from earlier work
[9] = according to MSDS; cited from earlier work; remark: listed apart in the source
[10] = at 20° C.; background statement; cited from earlier work
[11] = listed as ethylene glycol n-butyl ether acetate

Compound	Viscosity [1]	Freezing Point [2]	Flash Point [3]	other results
CCCCOCCO [Butyl Cellosolve ™, ethylene glycol monobutyl ether]	2.9 cP	−75.0 °C	67.0 °C	–
CCCCOCCOC(C)=O [Ethylene Glycol N-Butyl Ether Acetate, ethylene glycol n-butyl ether acetate]	1.81 cP	−64.0 °C	78 °C	EC50 for invertebrates [4]: > 10 µg/mL; LC50 for fish [5]: > 10 µg/mL; effect of solvent on performance of the corrosion inhibitors [6]: did not significantly affect the performance of the corrosion inhibitors; Viscosity [1, 11]: 1.79 cP and 1.81 cP; Log Pow bioaccumulation potential [7]: less than 3; EbC50 for algae [8]: > 10 mg/L; biodegradable in seawater [9]: 77-90%; Freezing Point [2, 11]: about −64 °C; Flash Point [3, 11]: about 78 °C
CC(C)O [Isopropanol]	2.1 cP	−89.0 °C	14 °C	–
CO [Methanol]	0.59 cP	−97.8 °C	12 °C	–
OCCO [Monoethylene Glycol]	17.3 cP	−13.0 °C	116 °C	Viscosity [10]: 17 cP
CC(O)CO (stereo not drawn) [Propylene Glycol]	55.0 cP	−59.0 °C	99.0 °C	–
O [Water]	0.895 cP	0 °C	–	–
